Like-named read-outs stand apart in the source and are kept apart here.

The test system of one data set is C. lagenarium. Description: Spore germination assay, fungicidal activity against C. lagenarium. It is filed as cell-based, Colletotrichum lagenarium. To be noted: Colletotrichum orbiculare. Here is the method:
(§1) The fungal pathogens C. lagenarium and B. cinerea was provided by the Agricultural Culture Collection of China (Yangling, Shaanxi, China). C. lagenarium was cultured for 2 weeks at 25 ± 1 °C on potato dextrose agar (PDA) while B. cinerea was cultured at 20 °C on the same medium after being retrieved from the storage tube. Plates were flooded with sterile distilled water, and then conidia were scraped with a glass rod. Mycelial debris was removed by filtration. The spores were harvested and suspended in sterile distilled water containing 0.1% (v/v) Tween 20. The concentration of the spore suspension was adjusted to 1.0 × 10^6 spores/mL with sterilized distilled water following.
(§2) The tested samples (10.0 mg) dissolved in acetone (0.1 mL) were diluted with sterile distilled water to prepare 10.0 mL stock solution, which was further diluted to prepare test solutions in which the final concentration of acetone was <1% (v/v). A series of concentrations of tested samples and one control (1% acetone with sterile distilled water) were separately tested for spore germination of C. lagenarium or B. cinerea. The samples were inoculated with spore suspension of C. lagenarium or B. cinerea containing 1.0 × 10^6 spores/mL. Aliquots of 10 μL of prepared spore suspension were placed on separate glass slides in triplicate. Slides containing the spores were incubated in a moisture chamber at 25 °C for 6~8 h. Each slide was then observed under the microscope for spore germination. Spores were considered to have germinated if the length of the germ tube was at least half the length of the spore. Afterward, spore germination was stopped by applying a drop of lactophenol-cotton blue to the inoculation sites on plates. The numbers of generated spores were counted under a microscope (Olympus BX61, Tokyo, Japan), and the percentage of germinated spores was calculated. Chlorothalonil was used as the positive control.

A further data set relates to B. cinerea. Kind of data set: Spore germination assay, fungicidal activity against B. cinerea. The conditions noted are these: Botrytis cinerea, in vitro, n = 3. The data set is classed as cell-based, Botrytis cinerea. Here is the method: as §1, §2
A further data set concerns HepG2 cell line. Description: Cytotoxic activity against human tumor cells line (HepG2). It is filed as cell-based.
The mark [1] stands for this setting: Table 1, from IC50 in μM, read-out: pIC50, C. lagenarium (converted).
Setting [2] is: Table 2, fungicidal activity against C. lagenarium used for QSAR, read-out: pIC50 (converted).
[3] abbreviates: Table 4, experimental, C. lagenarium, read-out: Exp. pIC50 (converted).
Where [4] appears, read: Table 6, read-out: IC50 (μM) (against C. lagenarium).
Setting [5] is: in vitro, spore germination, n = 3, read-out: IC50, C. lagenarium.

Consider `C=C1CC(c2ccc(OC(=O)c3ccccc3)cc2)OC1=O` (stereo not shown) [Compound 4i, 4-(4-Benzoyloxyphenyl)-2-methylenebutyrolactone], for which the melting point (as a rule, the temperature of the solid-liquid transition) was in the range of 223.3 to 223.7 °C. Moreover, in the data set with C. lagenarium (setting [1]), the IC50 is 95.3 µM. Also, in the data set on C. lagenarium (setting [2]), the IC50 was 95.3 µM. In the data set with C. lagenarium (setting [3]), the IC50 was 95.3 µM. Further, the IC50 with C. lagenarium (setting [4]) turned out to be 95.4 µM. The IC50 in the data set on C. lagenarium (setting [5]) was 95.4 µM. This compound also had an IC50 with B. cinerea of 112 µM. This compound came in with an IC50 in the data set on HepG2 cell line of 5.3 µM.

With `C=C1CC(c2cccc(OC(=O)c3ccc(OC)cc3)c2)OC1=O` (stereo not shown) [Compound 6l, 4-[3-(4-Methoxybenzoyloxy)phenyl]-2-methylenebutyrolactone], the melting point was 182.6 to 183.3 °C. Moreover, in the data set with C. lagenarium (setting [1]), the IC50 is 154 µM. For the same compound, the IC50 in the data set with C. lagenarium (setting [2]) was 154 µM. Further, the IC50 in the data set on C. lagenarium (setting [3]) was 154 µM. Besides, the IC50 with C. lagenarium (setting [4]) was 154 µM. In the data set on C. lagenarium (setting [5]), the IC50 is 154 µM. Besides, the IC50 with B. cinerea is 179 µM. The compound also displayed an IC50 in the data set with HepG2 cell line of 58.6 µM.

In the case of `C=C1CC(c2ccccc2OC(=O)c2cccc(OC)c2)OC1=O` (stereo not shown) [Compound 5l, 4-[2-(3-Methoxylbenzoyloxy)phenyl]-2-methylenebutyrolactone], the melting point lay within 180.3 to 180.8 °C. Moreover, the IC50 in the data set on C. lagenarium (setting [1]) was 284 µM. In the data set with C. lagenarium (setting [2]), the IC50 is 284 µM. Besides, the IC50 in the data set with C. lagenarium (setting [3]) is 284 µM. Moreover, the IC50 in the data set with C. lagenarium (setting [4]) came out at 284 µM. For the same compound, the IC50 with C. lagenarium (setting [5]) turned out to be 284 µM. This compound displayed an IC50 in the data set on B. cinerea of 303 µM. In the data set on HepG2 cell line, this compound registered an IC50 of 29 µM.

For the compound `C=C1CC(c2ccccc2OC(=O)c2cccc(C)c2)OC1=O` (stereo not shown) [Compound 5i, 4-[2-(3-Methylbenzoyloxy)phenyl]-2-methylenebutyrolactone], the melting point fell in the range of 179.3 to 179.9 °C. The IC50 with C. lagenarium (setting [1]) was 182 µM. The IC50 with C. lagenarium (setting [2]) was 182 µM. Besides, the IC50 in the data set on C. lagenarium (setting [3]) was 182 µM. The IC50 in the data set on C. lagenarium (setting [4]) was determined as 182 µM. Further, the IC50 in the data set on C. lagenarium (setting [5]) is 182 µM. The IC50 with B. cinerea amounted to 194 µM. Also, the IC50 in the data set with HepG2 cell line came to 85.2 µM.

Turning to `C=C1CC(c2ccccc2OC(=O)c2cccc(Cl)c2)OC1=O` (stereo not shown) [Compound 5a, 4-[2-(3-Chlorobenzoyloxy)phenyl]-2-methylenebutyrolactone], the melting point was 201.3 to 201.8 °C. The IC50 with C. lagenarium (setting [1]) is 16.8 µM. In addition, the IC50 in the data set with C. lagenarium (setting [2]) is 16.8 µM. Besides, in the data set on C. lagenarium (setting [3]), the IC50 is 16.8 µM. Also, the IC50 with C. lagenarium (setting [4]) amounted to 16.8 µM. In addition, the IC50 with C. lagenarium (setting [5]) came out at 16.8 µM. The compound also showed an IC50 in the data set on B. cinerea of 30.6 µM. In the data set on HepG2 cell line, this compound returned an IC50 of 28.4 µM.

For the compound `C=C1CC(c2ccc(OC(=O)c3cccc(C)c3)cc2)OC1=O` (stereo not shown) [Compound 4k, 4-[4-(3-Methylbenzoyloxy)phenyl]-2-methylenebutyrolactone], the melting point lay in the range of 186.2 to 186.6 °C. Also, the IC50 in the data set on C. lagenarium (setting [1]) is 178 µM. Moreover, in the data set on C. lagenarium (setting [2]), the IC50 was 178 µM. Moreover, the IC50 in the data set with C. lagenarium (setting [3]) was 178 µM. Also, the IC50 in the data set with C. lagenarium (setting [4]) came out at 178 µM. The IC50 in the data set on C. lagenarium (setting [5]) was found to be 178 µM. Besides, the IC50 in the data set with B. cinerea is 193 µM. The compound further showed an IC50 in the data set on HepG2 cell line of 28.5 µM.

`C=C1CC(c2ccc(OC(=O)c3ccc(OC)cc3)cc2)OC1=O` (stereo not shown) [Compound 4o, 4-[4-(4-Methoxylbenzoyloxy)phenyl]-2-methylenebutyrolactone] returned a melting point of 184.5 to 185.2 °C. In addition, the IC50 with C. lagenarium (setting [1]) is 219 µM. In addition, the IC50 in the data set with C. lagenarium (setting [2]) is 219 µM. For the same compound, the IC50 in the data set on C. lagenarium (setting [3]) is 219 µM. Moreover, the IC50 with C. lagenarium (setting [4]) is 219 µM. Besides, the IC50 with C. lagenarium (setting [5]) stood at 219 µM. In the data set on B. cinerea, the IC50 was 231 µM. The same compound had an IC50 in the data set on HepG2 cell line of 25 µM.

As for `C=C1CC(c2cccc(OC(=O)c3cccc(Cl)c3)c2)OC1=O` (stereo not shown) [Compound 6a, 4-[3-(3-Chlorobenzoyloxy)phenyl]-2-methylenebutyrolactone], the melting point is 205.7 to 206.4 °C. Also, in the data set with C. lagenarium (setting [1]), the IC50 is 7.67 µM. Besides, in the data set with C. lagenarium (setting [2]), the IC50 is 7.67 µM. For the same compound, in the data set with C. lagenarium (setting [3]), the IC50 was 7.67 µM. In the data set on C. lagenarium (setting [4]), the IC50 was determined as 7.68 µM. Also, the IC50 with C. lagenarium (setting [5]) was 7.68 µM. The compound further showed an IC50 in the data set with B. cinerea of 23.3 µM. Further, the IC50 with HepG2 cell line amounted to 30.2 µM.

For the compound `C=C1CC(c2cccc(O)c2)OC1=O` (stereo not shown) [Compound 6, 4-(3-Hydroxyphenyl)-2-methylenebutyrolactone], the melting point lay in the range of 78 to 79 °C. For the same compound, the IC50 in the data set on C. lagenarium (setting [1]) is 117 µM. The IC50 with C. lagenarium (setting [4]) worked out at 117 µM. The IC50 with C. lagenarium (setting [5]) was 117 µM. In the data set on B. cinerea, this compound registered an IC50 of 140 µM. This compound also yielded an IC50 with HepG2 cell line of 17.9 µM.

`C=C1CC(c2cccc(OC(=O)c3cccc(Br)c3)c2)OC1=O` (stereo not shown) [Compound 6d, 4-[3-(3-Bromobenzoyloxy)phenyl]-2-methylenebutyrolactone] yielded a melting point of 178.6 to 178.9 °C. The IC50 in the data set with C. lagenarium (setting [1]) is 8.17 µM. Moreover, the IC50 in the data set on C. lagenarium (setting [2]) is 8.17 µM. Moreover, in the data set on C. lagenarium (setting [3]), the IC50 was 8.17 µM. The IC50 with C. lagenarium (setting [4]) amounted to 8.17 µM. Further, the IC50 in the data set with C. lagenarium (setting [5]) came to 8.17 µM. Also, the IC50 in the data set with B. cinerea was 26 µM. In addition, the IC50 in the data set with HepG2 cell line was 20.9 µM.

As for `C=C1CC(c2ccc(O)cc2)OC1=O` (stereo not shown) [Compound 4, 4-(4-Hydroxyphenyl)-2-methylenebutyrolactone], the melting point lay in the range of 79 to 81 °C. Moreover, the IC50 in the data set on C. lagenarium (setting [1]) is 161 µM. In addition, the IC50 in the data set on C. lagenarium (setting [4]) was 161 µM. For the same compound, the IC50 in the data set on C. lagenarium (setting [5]) is 161 µM. In the data set on B. cinerea, this compound returned an IC50 of 208 µM. In the data set on HepG2 cell line, this compound yielded an IC50 of 23.3 µM.

Regarding `C=C1CC(c2cccc(OC(=O)c3ccccc3)c2)OC1=O` (stereo not shown) [Compound 6f, 4-(3-Benzoyloxyphenyl)-2-methylenebutyrolactone], the melting point was in the range of 204.5 to 204.8 °C. Also, the IC50 with C. lagenarium (setting [1]) was 73.1 µM. In the data set on C. lagenarium (setting [2]), the IC50 was 73.1 µM. For the same compound, the IC50 in the data set with C. lagenarium (setting [3]) was 73.1 µM. Further, the IC50 in the data set on C. lagenarium (setting [4]) is 73.1 µM. Further, in the data set on C. lagenarium (setting [5]), the IC50 was determined as 73.1 µM. The compound also gave an IC50 in the data set with B. cinerea of 102 µM. The IC50 with HepG2 cell line turned out to be 18.5 µM.

`C=C1CC(c2ccc(OC(=O)c3cccc(Br)c3)cc2)OC1=O` (stereo not shown) [Compound 4e, 4-[4-(3-Bromobenzoyloxy)phenyl]-2-methylenebutyrolactone] registered a melting point of 176.5 to 176.8 °C. Besides, in the data set on C. lagenarium (setting [1]), the IC50 is 8.77 µM. For the same compound, in the data set with C. lagenarium (setting [2]), the IC50 was 8.77 µM. Moreover, the IC50 in the data set with C. lagenarium (setting [3]) was 8.77 µM. In the data set with C. lagenarium (setting [4]), the IC50 was 8.76 µM. The IC50 in the data set on C. lagenarium (setting [5]) was 8.76 µM. In the data set on B. cinerea, this compound had an IC50 of 30.2 µM. The compound further had an IC50 in the data set on HepG2 cell line of 21.7 µM.

Source of the values: PMC6273913, “New α-Methylene-γ-Butyrolactone Derivatives as Potential Fungicidal Agents: Design, Synthesis and Antifungal Activities” (Molecules, 2016).
